Values joined by “and” are separate entries in the source; they are usually repeats but may differ in a detail not shown here. Identical values can stand only once.
Legend:
porcine liver esterase = assay: Esterase sensitivity; format: in vitro ADME; conditions: porcine liver esterase (Sigma), 10 min at 37° C.
Description: The product of example 1 was tested for in esterase sensitivity as compared to ECG using commercially available porcine liver esterase (Sigma).

EMRSA-16 [1] = assay: MIC of oxacillin in absence or presence of fixed concentration of compound; format: cell-based, Staphylococcus aureus
Description: (§1) Bacterial strains: S. aureus BB568 (COL-type strain that carries mecA and pT181) was provided by Professor B. Berger-Bächi. EMRSA-15 and EMRSA-16 were clinical isolates from the Royal Free Hospital, London.
(§2) Antibacterial susceptibility testing: Minimum Inhibitory Concentration (MIC) was determined by both broth and agar dilution techniques. Broth MIC testing was performed in 96-well microtitre trays with an inoculum of about 10^4 cfu in 100 μL of Mueller-Hinton broth (MHB) (Oxoid, Basingstoke, United Kingdom) supplemented with 2% NaCl. MIC determinations by agar dilution were carried out using Mueller-Hinton agar (Oxoid) with an inoculum of about 10^4 organisms per spot. For both methods, MIC values were obtained after incubation at 35° C. for 24 h. S. aureus ATCC29213 was used as the standard.
(§3) With the amide derivatives (21 and 24) in hand, their efficacy as modulators for β-lactam resistance in S. aureus was evaluated by determining their capcity to reduce the minimum inhibitory concentration (MIC) of oxacillin against MRSA strains BB 568, EMRSA-15 and EMRSA-16 as described in example 2.
(§4) With the B-ring modified analogues 47 and 48 in hand, their efficacy as modulators for β-lactam resistance in S. aureus was evaluated by determining their capacity to reduce the minimum inhibitory concentration (MIC) of oxacillin against MRSA strains BB 568, EMSRA-15 and EMSRA-16 (Table 5)

EMRSA-15 [2] = assay: as above; format: cell-based, Staphylococcus aureus
Description: as §1, §2, §3, §4

S. aureus BB568 [3] = assay: as above; format: cell-based, Staphylococcus aureus; conditions: BB 568
Description: as §1, §2, §3, §4

40 MRSA strains = conditions: all 40 MRSA strains; cited from earlier work
EMRSA-16 cells = assay: Binding of catechins to staphylococcal cells (HPLC of unbound catechin); design: species or system Staphylococcus aureus; conditions: compound added alone
From the text: The method is based on Hashimoto, T. et al 1999.

MRSA strain BB568 = conditions: cited from earlier work; for MIC of oxacillin in combination with compound: fixed sub-inhibitory concentration of compound
[4] = system: MRSA strains BB 568, EMRSA-15 and EMRSA-16; assay: Intrinsic antibacterial activity, summary over three strains; format: cell-based, Staphylococcus aureus; conditions: compound alone, in words
Description: as §1, §2
(§5) Sub-inhibitory concentrations (6.25, 12.5 and 25 mg/L) of both compounds were effective in reducing the MIC of all three strains examined.

EMRSA-16 [5] = assay: MIC of compound alone, broth dilution; format: cell-based, Staphylococcus aureus; conditions: MHB + 2% NaCl, 35° C., 24 h
Description: as §1, §2

EMRSA-15 [6] = assay: MIC of compound alone, broth dilution; format: cell-based, Staphylococcus aureus; conditions: MHB + 2% NaCl, 35° C., 24 h
Description: as §1, §2

S. aureus BB568 [7] = assay: MIC of compound alone, broth dilution; format: cell-based, Staphylococcus aureus; conditions: 35° C., 24 h
Description: as §1, §2

[8] = system: MRSA strains BB 568, EMRSA-15 and EMRSA-16; assay: Modulation of oxacillin resistance, summary over three strains; format: cell-based, Staphylococcus aureus; conditions: for potency as oxacillin sensitiser compared with ECg: 6.25 mg/L of catechin gallate
Description: as §1, §2, §5
At a concentration of 25 mg/L, ECg and the two analogues (47 and 48) fully sensitised each of the three MRSA strains to oxacillin, reducing the MICs to less than 0.5 mg/L, a figure well below the clinically-relevant breakpoint for β-lactam antbiotics.

[9] = in presence of 6.25 mg/L compound
[10] = in presence of 12.5 mg/L compound
[11] = in presence of 12.5 mg/L compound, listed as ECG
[12] = in presence of 25 mg/L compound
[13] = Staphylococcus aureus, read-out: MIC
[14] = Staphylococcus aureus, BB568, BB 568, MHB + 2% NaCl, read-out: MIC
[15] = Staphylococcus aureus, absence of compound, 35° C., 24 h

Row | Oxacillin MIC (EMRSA-16 [1]; [9]) | Oxacillin MIC (EMRSA-16 [1]; [12]) | Oxacillin MIC (EMRSA-15 [2]; [9]) | Oxacillin MIC (S. aureus BB568 [3]; [9]) [mg/L] | Oxacillin MIC (S. aureus BB568 [3]; [12]) | MIC (EMRSA-16 [5]) | MIC (EMRSA-15 [6]) | MIC (S. aureus BB568 [7]; BB 568, MHB + 2% NaCl) | SMILES | Oxacillin MIC (EMRSA-16 [1]; [10]) | Oxacillin MIC (EMRSA-15 [2]; [10]) | Oxacillin MIC (EMRSA-15 [2]; [12]) | Oxacillin MIC (S. aureus BB568 [3]; [10]) | MIC of oxacillin in combination with compound (MRSA strain BB568) | intrinsic antibacterial activity [4] | other results
1 | 64 mg/L | ≦0.5 mg/L | 2 mg/L | 16 | ≦0.5 mg/L | 32 mg/L | 64 mg/L | 128 mg/L | O=C(O[C@@H]1Cc2c(O)cc(O)cc2O[C@@H]1c1cc(O)cc(O)c1)c1cc(O)c(O)c(O)c1 [Compound 48, (−)-3,5-dihydroxy B ring modified (−)-ECg] | ≦0.5 mg/L | ≦0.5 mg/L | ≦0.5 mg/L | 1 mg/L | – | weak to moderate anti-staphylococcal activity | potency as oxacillin sensitiser compared with ECg [8]: less potent than the natural compound
2 | – | – | – | – | – | – | – | – | O=C(O[C@@H]1Cc2c(O)cc(O)cc2O[C@@H]1c1cc(O)c(O)c(O)c1)c1cc(O)c(O)c(O)c1 [EGCg, epigallocatechin gallate] | – | – | – | – | 8 µg/mL | – | Binding (%) (EMRSA-16 cells): 16.2%
3 | – | – | – | – | – | – | – | – | Cc1onc(-c2ccccc2)c1C(=O)N[C@@H]1C(=O)N2[C@@H]1SC(C)(C)[C@@H]2C(=O)O [Oxacillin, oxacillin, reference compound] | – | – | – | – | – | – | MIC (EMRSA-16 [1]; [15]): 512 µg/mL; MIC (EMRSA-15 [2]; [15]): 32 µg/mL; Oxacillin MIC (S. aureus BB568 [3]; absence of compound, 35° C., 24 h, listed as Oxacillian): 256 mg/L; MIC (S. aureus BB568 [3]; Staphylococcus aureus, BB568, absence of compound, 35° C., 24 h): 256 µg/mL; MIC for oxacillin (MRSA strain BB568; oxacillin alone): 256 µg/mL
4 | – | – | – | – | – | – | – | – | Oc1cc(O)c2c(c1)O[C@H](c1cc(O)c(O)c(O)c1)[C@H](O)C2 [EGC, epigallocatechin] | – | – | – | – | inactive | – | –
5 | 32 mg/L | ≦0.5 mg/L | 2 mg/L | 16 | ≦0.5 mg/L | 128 mg/L | >128 mg/L | >128 mg/L | O=C(O[C@@H]1Cc2c(O)cc(O)cc2O[C@@H]1c1cccc(O)c1)c1cc(O)c(O)c(O)c1 [Compound 47, (−)-3-hydroxy B ring modified (−)-ECg] | 1 mg/L | ≦0.5 mg/L | ≦0.5 mg/L | 2 mg/L | – | little or no intrinsic antibacterial activity | potency as oxacillin sensitiser compared with ECg [8]: less potent than the natural compound
6 | – | 256/512 | – | – | 64/64 | – | – | – | O=C(N[C@H]1Cc2c(O)cc(O)cc2O[C@@H]1c1ccc(O)c(O)c1)c1cc(O)c(O)c(O)c1 [Compound 24] | – | – | significant degree of sensitisation and 2/4 | – | – | extremely weak intrinsic antibacterial activity | MIC (EMRSA-16 [5]; [13]): 128 mg/L; MIC (EMRSA-15 [6]; [13]): 256 mg/L; MIC (S. aureus BB568 [7]; [14]): 256 mg/L

Row | SMILES | Oxacillin MIC (EMRSA-16 [1]; [9]) | Oxacillin MIC (EMRSA-16 [1]; [12]) | Oxacillin MIC (EMRSA-15 [2]; [9]) | Oxacillin MIC (S. aureus BB568 [3]; [9]) [mg/L] | Oxacillin MIC (S. aureus BB568 [3]; [12]) | MIC (EMRSA-16 [5]) | MIC (EMRSA-15 [6]) | MIC (S. aureus BB568 [7]; BB 568, MHB + 2% NaCl) | Oxacillin MIC (EMRSA-16 [1]; [10]) | Oxacillin MIC (EMRSA-15 [2]; [10]) | Oxacillin MIC (EMRSA-15 [2]; [12]) | Oxacillin MIC (S. aureus BB568 [3]; [10]) | MIC of oxacillin in combination with compound (MRSA strain BB568) | intrinsic antibacterial activity [4] | other results
7 | O=C(O[C@@H]1Cc2c(O)cc(O)cc2O[C@@H]1c1ccc(O)c(O)c1)c1cc(O)c(O)c(O)c1 [ECg, (−)-epicatechin gallate, reference compound] | ≦0.5 mg/L | ≦0.5 mg/L | ≦0.5 mg/L | 1 | ≦0.5 mg/L | – | – | – | ≦0.5 mg/L | ≦0.5 mg/L | ≦0.5 mg/L | ≦0.5 mg/L | 1 µg/mL | – | hydrolysis by esterase (porcine liver esterase): totally hydrolysed; Oxacillin MIC (EMRSA-16 [1]; [11]): 1 mg/L; Oxacillin MIC (S. aureus BB568 [3]; [11]): 1 mg/L; reduction of β-lactam MIC (40 MRSA strains): reduced the MIC values to the susceptibility breakpoint or below; Binding (%) (EMRSA-16 cells): 22%
8 | O=C(N[C@@H]1Cc2c(O)cc(O)cc2O[C@@H]1c1ccc(O)c(O)c1)c1cc(O)c(O)c(O)c1 [Ex 1] | – | 1/1 | – | – | 4/8 | 128/128 | 128/256 | 128/256 | 32/64 | 1/1 | – | 32/64 | – | extremely weak intrinsic antibacterial activity | hydrolysis by esterase (porcine liver esterase): not affected; MIC (EMRSA-16 [5]; [13]): 128 mg/L; MIC (EMRSA-15 [6]; [13]): 256 mg/L; MIC (S. aureus BB568 [7]; [14]): 256 mg/L; Oxacillin MIC, each of the three MRSA strains [8, 12]: able to reduce the resistance to oxacillin of all three strains
